“And” between values parts separate entries of the source, which are not always exact repeats. Identical values can stand only once.
Legend:
[1] = healthy volunteer population (Evans 2013); cited from earlier work
[2] = system: patients with pemphigus (PV and PF); assay: Interim data as of Jan. 18, 2018 in patients with pemphigus (PV and PF); format: in vivo, human
Method: As of Jan. 18, 2018, PRN1008 had been administered to 21 patients with pemphigus (pemphigus vulgaris (PV) and pemphigus foliaceus (PF)), 18 of whom had 4 or more weeks of treatment with […]1008 was well-tolerated in this study. […] Three patients achieved CDA on no CS. Two patients required high-dose CS temporarily during PRN1008 treatment due to worsening of disease activity. Four patients achieved complete remission (CR) on 1 to 20 mg/day of CS, three achieved CR at Week 13 (25%), and one achieved CR at Week 21.

[3] = system: anti-dsg 1 and anti-dsg 3 autoantibody levels; assay: Anti-dsg autoantibody levels by ELISA, Part A; conditions: including patients with high autoantibody levels at baseline
From the text: PK outcome measures investigated included plasma concentrations of PRN1008 at approximately the time of maximum concentration on Day 1 and at various subsequent times during outpatient dosing.

[4] = system: healthy volunteers; conditions: Phase 1, healthy volunteers (Smith PF 2017); cited from earlier work
[5] = Relative bioavailability study, tablet vs liquid formulation
[6] = system: rats with collagen-induced arthritis; conditions: rats with collagen-induced arthritis (Hill R et al., 2015); cited from earlier work
[7] = system: patients with newly diagnosed or relapsing pemphigus; assay: Phase 2 study Part A (400 mg BID up to 600 mg BID, 12-week treatment): clinical activity; format: in vivo, human; conditions: for patients who achieved complete remission (CR): n = 24
[8] = system: patients with newly diagnosed or relapsing pemphigus; assay: Phase 2 study Part B (400 mg QD up to 600 mg BID, 24-week treatment): clinical activity; conditions: for Median PDAI: 12 at day 1
Method: Generally, clinical response is shown by some improvement seen in first 2 weeks with CDA achieved by the Week 5 visit. […] Typically, clinical response and tolerability were assessed at each visit.
PDAI and ABSIS assessments were employed to monitor pemphigus disease activity. […] Photography was used to document skin disease changes where appropriate.
Part B was a multicenter, open-label, single-arm Phase 2 study (NCT02704429) designed to further evaluate the efficacy and safety of PRN1008 in pemphigus patients. Patients received an initial dose of 400 mg PRN1008 once a day (QD) with possible dose adjustment up to 600 mg BID at investigator discretion. Treatment duration was 24 weeks with an additional 4 weeks of follow-up off treatment.

[9] = system: canines with naturally occurring PF; conditions: canines with naturally occurring PF (Murrell DF, 2019); cited from earlier work
[10] = system: fetal development, male fertility; assay: Preclinical reproductive toxicity studies; format: in vivo
[11] = system: patients with pemphigus; assay: Safety (adverse events), Part B
Method: (§1) Specific assessments to evaluate treatment safety included the following: (1) the frequency and type of AEs; (2) clinical laboratory testing; (3) SNAQ appetite questionnaire; and (4) vital signs. Typically, patients remained under observation in the clinic for 2 hours after administration of the first PRN1008 dose and until the PK sample was drawn.
(§2) The primary safety outcome measures were incidence of treatment-emergent AEs (TEAEs), including clinically significant changes in physical examination, laboratory tests, and vital signs.
(§3) Investigators were instructed to report in detail all AEs encountered during the clinical study in the source documents, from the date of participant consent throughout the follow-up visit. Investigators were also instructed to report pre-existing conditions that worsen during a study were instructed as AEs, with the exception of the disease under study as it was expected that there may be variation in pemphigus disease activity intended to be captured in other measurements.
(§4) Investigators were instructed to grade AEs based on the NCI CTCAE, Version 4.0 or higher.
(§5) Investigators were instructed to use their knowledge of the study participant, the circumstances surrounding the event, and an evaluation of any potential alternative causes to determine whether or not an AE is considered to be related to the study drug, indicating “yes” or “no” accordingly.

[12] = Plasma concentration of PRN1008, Part A; format: in vivo; conditions: human, oral, read-out: plasma levels at 12 hours post-dose (trough point)
[13] = system: patients with pemphigus (Safety Population); assay: Safety (treatment-emergent adverse events), Part A
Method: as §1, §2, §3, §4, §5

SMILES: C=CC(=O)Nc1cccc(Nc2nc(Nc3ccc(OCCOC)cc3)ncc2F)c1 [CC-292]
- tolerability [1]: well tolerated

SMILES: CC(C)(C=C(C#N)C(=O)N1CCC[C@@H](n2nc(-c3ccc(Oc4ccccc4)cc3F)c3c(N)ncnc32)C1)N1CCN(C2COC2)CC1 [PRN1008, (R)-2-[3-[4-amino-3-(2-fluoro-4-phenoxy-phenyl)pyrazolo[3,4-d]pyrimidin-1-yl]piperidine-1-carbonyl]-4-methyl-4-[4-(oxetan-3-yl)piperazin-1-yl]pent-2-enenitrile]
- patients who achieved CDA on no CS [2]: Three
- patients who achieved CR at Week 21 [2]: one
- patients who achieved complete remission (CR) on 1 to 20 mg/day of CS [2]: Four
- patients who met the primary endpoint CDA on CS <= 0.5 mg/kg/day by the Week 5 visit ([2]; 11 of 18 patients with efficacy data): 61%
- tolerability ([2]; 21 patients with pemphigus): well-tolerated
- patients who required high-dose CS temporarily due to worsening of disease activity ([2]; during PRN1008 treatment): Two
- patients who achieved CR at Week 13 ([2]; three patients): 25%
- median reduction of autoantibody levels [3]: up to 65%
- discontinuation due to an adverse event [4]: no participants discontinued treatment due to an adverse event
- most commonly reported adverse events [4]: gastrointestinal adverse events, including nausea/vomiting and diarrhea
- serious adverse events or deaths [4]: No serious adverse events or deaths were reported
- exposure of the tablet relative to the equal dose of the liquid formulation [5]: ~ 70%
- disease symptoms and outcomes [6]: improved disease symptoms and outcomes
- Efficacy across subgroups [7]: 43-64%
- additional patients who achieved CR at Week 13 without CS use [7]: four
- patients who achieved CDA at or prior to the Week 5 visit without the use of CS [7]: Three
- patients who did not require dose escalation to achieve response [7]: 90%
- patients who needed dose escalation beyond the standard 400 mg bid [7]: three
- patients who achieved control of disease activity (CDA) ([7]; 400 mg BID (up to 600 mg BID), 2 weeks / study day 15, n = 26): 27%
- CDA with low dose CS by Day 29, dosing subgroup ([7]; 400 mg BID subgroup, 12 of 23): 52%
- CDA with low dose CS by Day 29, dosing subgroup ([7]; 500 mg BID subgroup, 1 of 1): 100%
- CDA with low dose CS by Day 29, dosing subgroup ([7]; 600 mg BID subgroup, 1 of 2): 50%
- patients who achieved control of disease activity (CDA) with low dose CS ([7]; 4 weeks / Day 29, CS <= 0.5 mg/kg/day, n = 26 (primary endpoint), 0.5 mg/kg/day): 54% and > 50%
- CDA rate in newly diagnosed patients ([7]; 6 of 8): 75%
- patients who achieved CR during the study period ([7]; 6 of 26): 23%
- patients who achieved complete remission (CR) ([7]; 12 weeks (treatment period), patients that completed the study): 16.7% and 17%
- patients who achieved control of disease activity (CDA) with low dose CS ([7]; 12 weeks / Day 85): 73%
- CDA rate in relapsing patients ([7]; 13 of 18): 72%
- patients who achieved complete remission (CR) ([7]; 24 weeks (12 weeks on, 12 weeks off treatment; follow-up by Day 141)): 25%
- PDAI scores on the Day 85 visit ([7]; all of 11 patients with milder disease): ≤ 5
- Mean CS dose after 12 weeks of treatment ([7]; all patients, SD = 10, baseline 14 mg/day (SD = 11)): 12 mg/day
- mean CS dose at CR ([7]; dropped from 14 mg/day at baseline): 8 mg/day
- additional patients who achieved CR on CS <= 0.5 mg/kg/day by Day 141 ([7]; follow-up period): two
- patients who achieved CR on CS doses <= 0.5 mg/kg/day by Day 85 ([7]; four patients of 26): 15%
- patients who needed CS rescue > 0.5 mg/kg ([7]; in the 12 weeks off PRN1008): 4 patients
- median reduction in PDAI scores ([7]; over 12 weeks of treatment): 70%
- mean CS dose at the time CR was achieved ([7]; patients who achieved CR, range 1-20 mg): 8 mg
- median CR duration ([7]; post-treatment): 96 days
- mean CS dose during CR duration ([7]; post-treatment, range 0.7-20 mg/day): 8 mg/day
- CDA rate in patients with a positive anti-dsg 3 antibody ([7]; slightly higher than overall mITT population): 64%
- patients who achieved CDA ([8]; 400 mg QD only, 2 weeks, n = 14 (FIG. 6)): 29%
- patients who achieved CDA ([8]; 400 mg QD only, 4 weeks, n = 14 (FIG. 6)): 43%
- patients who achieved CDA ([8]; 400 mg QD only, 4 weeks, n = 14 (FIG. 8B, 80% CI)): 50%
- patients who achieved CDA ([8]; 400 mg QD only, 12 weeks, n = 14 (FIG. 6)): 50%
- patients who achieved CDA ([8]; 400 mg QD only, 12 weeks, n = 14 (FIG. 8B, 80% CI)): 50%
- patients who achieved complete remission (CR) ([8]; 400 mg QD only, 12 weeks, n = 14 (FIG. 9B)): 7%
- patients who achieved complete remission (CR) ([8]; 400 mg QD only, 24 weeks, n = 14 (FIG. 9B)): 7%
- patients who achieved complete remission (CR) ([8]; 400 mg QD only, 28 weeks (24 on, 4 off treatment), n = 14 (FIG. 9B)): 7%
- patients who achieved CDA ([8]; 400 mg QD with dose adjustment up to 600 mg BID, 2 weeks, n = 15 (FIG. 7)): 27%
- patients who achieved CDA ([8]; 400 mg QD with dose adjustment up to 600 mg BID, 4 weeks, n = 15 (FIG. 7)): 53%
- patients who achieved CDA ([8]; 400 mg QD with dose adjustment up to 600 mg BID, 12 weeks, n = 15 (FIG. 7)): 80%
- daily corticosteroid usage ([8]; 24 weeks of PRN1008 treatment): decreased
- Median PDAI ([8]; at 12 weeks): 4
- patients having reached a PDAI of 1 or 0 ([8]; at 24 weeks, 10 out of 15): 67%
- Median PDAI ([8]; at 24 weeks): 1
- reduction in mean PDAI activity score ([8]; by 24 weeks): 79%
- reduction in median PDAI activity score ([8]; by 24 weeks): 94%
- patients who achieved CDA ([8]; dose adjustment up to 600 mg BID, 4 weeks, n = 15 (FIG. 8A, 80% CI)): 60%
- patients who achieved complete remission (CR) ([8]; dose adjustment up to 600 mg BID, 12 weeks (FIG. 9A)): 13%
- patients who achieved CDA ([8]; dose adjustment up to 600 mg BID, 12 weeks, n = 15 (FIG. 8A, 80% CI)): 87%
- patients who achieved complete remission (CR) ([8]; dose adjustment up to 600 mg BID, 24 weeks (FIG. 9A)): 33%
- patients who achieved complete remission (CR) ([8]; dose adjustment up to 600 mg BID, 28 weeks (24 on, 4 off treatment) (FIG. 9A)): 40%
- disease symptoms and outcomes [9]: improved disease symptoms and outcomes
- reproductive toxicity [10]: not expected to harm fetal development or male fertility
- tolerability [11]: well tolerated
- severity of treatment-related AEs ([11]; all treatment-related AEs): mild-moderate and transient
- Treatment-related AEs with an incidence greater than 10% ([11]; mild to moderate (grade 1 and 2)): nausea, abdominal distension, infection, and oropharyngeal pain
- patients who reported a mild related infection ([11]; of 15, grade 1 nasopharyngitis, grade 1 tracheitis): 2 patients
- concentration at 12 h [12]: 9.5 ng/mL
- AEs commonly associated with marketed BTKi (major hemorrhage, atrial fibrillation, thrombocytopenia/neutropenia) ([13]; Part A): no cases
- AEs related to the study drug: headache ([13]; Part A): 11%
- AEs related to the study drug: nausea ([13]; Part A): 15%
- AEs related to the study drug: upper abdominal pain ([13]; Part A): 11%
- patients who experienced Serious AEs (SAE) ([13]; Part A): Three
- patients who experienced a TEAE ([13]; Part A Safety Population, 20 of 27): 74%
- only treatment related SAE ([13]; Part A, Day 26, patient with type II diabetes): cellulitis (Grade 3)
- AEs that were Grade 1 or 2 ([13]; Part A, number of AEs out of all AEs): 94/97

— patent US20230158033A1, “Method of Treating Pemphigus by Administering (R)-2-[3-[4-Amino-3-(2-Fluoro-4-Phenoxy-Phenyl)Pyrazolo[3,4-D]Pyrimidin-1-YL]Piperidine-1-Carbonyl]-4-Methyl-4-[4-(Oxetan-3-YL)Piperazin-1-YL]Pent-2-Enenitrile” (Principia Biopharma Inc., priority 2019, published 2023)
